Experimental data taken from US20240246905A1 (University of Leicester, priority 2021, published 2024).
Converted amounts (≈) assume the structure as drawn.

How the values were obtained:
HEK293 cells = test: Cytotoxicity assay, resazurin (CO-ADD)
Procedure: The cytotoxicity studies were performed by CO-ADD (The Community for Open Antimicrobial Drug Discovery), funded by the Wellcome trust (UK) and the University of Queensland, Australia.^(28) In this study, the compounds were screened against a human embryonic kidney cell line, HEK293, at a set concentration of 32 μg/mL.
DMEM supplemented with 10% FBS was used as growth media and the cells were incubated together with the compounds for 20 hours at 37° C. in 5% CO2.
Cytotoxicity (or cell viability) was measured by fluorescence, excitation: 560/10 nm, emission: 590/10 nm (F560/590), after addition of 5 μL of 25 μg/mL Resazurin (2.3 μg/mL final concentration) and after incubation for further 3 h at 37° C. in 5% CO2. The fluorescence intensity was measured using a Tecan M1000 Pro monochromator plate reader, using automatic gain calculation CC50 (concentration at 50% cytotoxicity) were calculated by curve fitting the inhibition values vs. log(concentration) using sigmoidal dose-response function, with variable fitting values for bottom, top and slope. The curve fitting was implemented using Pipeline Pilot's dose-response component.

[1] = system: Staphylococcus aureus 15981; test: Disc diffusion (Kirby-Bauer), zone of inhibition; format: cell-based; details: Staphylococcus aureus 15981; 500 μg/mL; '/' = no zone; read-out: Zone of inhibition
Procedure: (§1) E. coli DH5α, P. aeruginosa PA01 and the 53 S. aureus strains were recovered from frozen (−80° C.) glycerol (15% v/v) stocks on Lysogeny agar (LA)—Gram negative and trypticase soy agar (TSA)—plates at 37° C. for 24 hours. Single colonies were placed in either 3 mL Lysogeny broth (LB)—Gram negative or trypticase soy broth (TSB)—Gram positive and incubated at 37° C., 250 rpm for 18 hours.
(§2) The antibiotic activity was determined using a Kirby-Bauer method according to Clinical Standard Laboratory Institute (CSLI) Guidelines (2017). Briefly, 180 μL of a 1 in 200 dilution (in LB or TSB) of overnight cultures of selected Gram negative and Gram positive bacteria were applied to an agar plate containing the solid growth medium, Mueller-Hinton agar (MHA). Sterile discs, inoculated with 50 μL of antibiotic, were first added to the agar plate before the plates were incubated for 24 hours at 37° C. Following incubation, the zone of inhibition (if it existed) was recorded.

red blood cells = test: Hemolysis assay (CO-ADD); format: cell-based; details: 32 μg/mL highest concentration tested
Text: A problem often encountered by emerging drugs is hemolysis, also known as drug-induced immune hemolytic anemia.

MSSA 476 [2] = test: Disc diffusion (Kirby-Bauer), zone of inhibition; format: cell-based, Staphylococcus aureus; details: Staphylococcus aureus, 500 μg/mL, '/' = no zone, read-out: Zone of inhibition
Procedure: as §1, §2

MRSA 252 [3] = test: Disc diffusion (Kirby-Bauer), zone of inhibition; format: cell-based, Staphylococcus aureus; details: Staphylococcus aureus, 500 μg/mL, '/' = no zone, read-out: Zone of inhibition
Procedure: as §1, §2

MSSA 476 [4] = test: MIC, broth micro-dilution; format: cell-based, Staphylococcus aureus; details: Staphylococcus aureus, MSSA, read-out: MIC
Procedure: as §1
(§3) Antibiotic MIC's were determined by a broth micro-dilution method according to Clinical Standard Laboratory Institute (CSLI) Guidelines (2017). Briefly, 96-well microplates, each containing 195 μL of the 1:2 dilution antibiotic in TSB, were inoculated with 5 μL of overnight cultured bacteria, diluted to give a starting bacterial concentration of 5×10^5 CFU/mL. The optical density of each well inoculated was recorded every 12 minutes over an 18 hour period at 37° C. The data from this was plotted in OriginPro8 (OriginLab) and sigmoidal curves fitted using the dose response function. Fitted values for each curve were used to calculate the MIC.

MRSA 252 [5] = test: MIC, broth micro-dilution; format: cell-based, Staphylococcus aureus; details: Staphylococcus aureus, read-out: MIC
Procedure: as §1, §3

[6] = system: various Staphylococcus aureus strains; test: Disc diffusion, Staphylococcus aureus strain study; format: cell-based; details: Staphylococcus aureus, 500 μg/mL
Text: At this point in the study it was decided to perform a disc diffusion assay study on 50 S. aureus strains. […] Moreover, by employing a range of mutant strains of S. aureus with specific gene-deletions, it was believed that if particular strains were resistant to the lead compounds, it could provide insights on the likely protein target of the lead antibiotics. However, all six of the compounds utilized in this study were able to inhibit growth of all 50 strains of S. aureus assayed at the chosen concentration of 500 μg/mL concentration (Table 5).
as §1, §2

With `[C-]#[N+]C=Cc1cc(Br)ccc1O` [Compound 13] the “Concentration toxic to HEK 293 cells” value (HEK293 cells; HEK 293) was over 32000 ng/mL, the “toxicity towards the HEK293 cell line (in words)” value (HEK293 cells; set concentration of 32 μg/mL) was “no toxicity” and the zone of inhibition at 500 µg/mL [1] was 18 mm. The “Hemolytic activity (HC10)” value (red blood cells) was over 32 µg/mL, the zone of inhibition at 500 µg/mL (MSSA 476 [2]) was 22 mm and the zone of inhibition at 500 µg/mL (MRSA 252 [3]) was 22 mm. For the same compound, the MIC (MSSA 476 [4]) was 145 µg/mL (≈ 647 µM), the MIC (MRSA 252 [5]) was 35 µg/mL (≈ 156 µM) and the zone of inhibition at 500 µg/mL ([6]; strain ASARM 61) was 20 mm. It also gave a zone of inhibition at 500 µg/mL ([6]; strain ASARM 70) of 20 mm, a zone of inhibition at 500 µg/mL ([6]; strain ASARM 71) of 20 mm and a zone of inhibition at 500 µg/mL ([6]; strain ASARM 72) of 16 mm. For the same compound, the zone of inhibition at 500 µg/mL ([6]; strain ASARM 73) was 20 mm, the zone of inhibition at 500 µg/mL ([6]; strain ASARM 75) was 20 mm and the zone of inhibition at 500 µg/mL ([6]; strain ASARM 76) was 20 mm. For the same compound, the zone of inhibition at 500 µg/mL ([6]; strain ASARM 77) was 20 mm, the zone of inhibition at 500 µg/mL ([6]; strain ASARM 79) was 20 mm and the zone of inhibition at 500 µg/mL ([6]; strain ASARM 80) was 18 mm. The zone of inhibition at 500 µg/mL ([6]; strain EOE 3) was 24 mm, the zone of inhibition at 500 µg/mL ([6]; strain EOE 23) was 22 mm and the zone of inhibition at 500 µg/mL ([6]; strain EOE 30) was 22 mm. It also gave a zone of inhibition at 500 µg/mL ([6]; strain EOE 35) of 22 mm, a zone of inhibition at 500 µg/mL ([6]; strain EOE 41) of 20 mm and a zone of inhibition at 500 µg/mL ([6]; strain EOE 42) of 20 mm. It also gave a zone of inhibition at 500 µg/mL ([6]; strain EOE 45) of 24 mm, a zone of inhibition at 500 µg/mL ([6]; strain EOE 52) of 22 mm and a zone of inhibition at 500 µg/mL ([6]; strain EOE 54) of 22 mm. It also gave a zone of inhibition at 500 µg/mL ([6]; strain EOE 57) of 25 mm, a zone of inhibition at 500 µg/mL ([6]; strain S139_7_7) of 24 mm and a zone of inhibition at 500 µg/mL ([6]; strain S197_1_1) of 26 mm. It also gave a zone of inhibition at 500 µg/mL ([6]; strain S197_1_8) of 20 mm, a zone of inhibition at 500 µg/mL ([6]; strain S197_1_9) of 20 mm and a zone of inhibition at 500 µg/mL ([6]; strain S197_1_10) of 20 mm. The zone of inhibition at 500 µg/mL ([6]; strain S295_1_1) was 22 mm, the zone of inhibition at 500 µg/mL ([6]; strain S295_1_2) was 20 mm and the zone of inhibition at 500 µg/mL ([6]; strain S295_1_3) was 20 mm. It also gave a zone of inhibition at 500 µg/mL ([6]; strain S364_5_11) of 20 mm, a zone of inhibition at 500 µg/mL ([6]; strain S364_5_12) of 25 mm and a zone of inhibition at 500 µg/mL ([6]; strain Sa_TPS 3026) of 20 mm. It also gave a zone of inhibition at 500 µg/mL ([6]; strain Sa_TPS 3072) of 21 mm, a zone of inhibition at 500 µg/mL ([6]; strain Sa_TPS 3092) of 20 mm and a zone of inhibition at 500 µg/mL ([6]; strain Sa_TPS 3097) of 20 mm. It also gave a zone of inhibition at 500 µg/mL ([6]; strain Sa_TPS 3103) of 20 mm, a zone of inhibition at 500 µg/mL ([6]; strain Sa_TPS 3104) of 22 mm and a zone of inhibition at 500 µg/mL ([6]; strain Sa_TPS 3106) of 16 mm. For the same compound, the zone of inhibition at 500 µg/mL ([6]; strain Sa_TPS 3118) was 22 mm, the zone of inhibition at 500 µg/mL ([6]; strain Sa_TPS 3133) was 20 mm and the zone of inhibition at 500 µg/mL ([6]; strain Sa_TPS 3134) was 18 mm. For the same compound, the zone of inhibition at 500 µg/mL ([6]; strain USFL 008) was 18 mm, the zone of inhibition at 500 µg/mL ([6]; strain USFL 009) was 22 mm and the zone of inhibition at 500 µg/mL ([6]; strain USFL 012) was 22 mm. The zone of inhibition at 500 µg/mL ([6]; strain USFL 016) was 20 mm, the zone of inhibition at 500 µg/mL ([6]; strain USFL 018) was 20 mm and the zone of inhibition at 500 µg/mL ([6]; strain USFL 020) was 20 mm. For the same compound, the zone of inhibition at 500 µg/mL ([6]; strain USFL 021) was 22 mm, the zone of inhibition at 500 µg/mL ([6]; strain USFL 028) was 22 mm and the zone of inhibition at 500 µg/mL ([6]; strain USFL 035) was 22 mm. The zone of inhibition at 500 µg/mL ([6]; strain USFL 054) was 22 mm.
